Experimental data published in paper PMC8286840, “Identifying SARS-CoV-2 antiviral compounds by screening for small molecule inhibitors of Nsp3 papain-like protease” (Biochemical Journal, 2021).
Counter-ions that a name gives are not always drawn. Like-named read-outs stand apart in the source and are kept apart here. Where a SMILES comes first, the peptide text is derived from it. The star is where a group is joined. Cbz = O=C(OCc1ccccc1)*

Key:
[1] = biological target: T1, SARS-CoV-2 PLpro (nsp3 1564–1878) (Severe acute respiratory syndrome coronavirus 2, UniProt P0DTD1); assay: biochemical; parameters: FRET-quenched peptide (Pro3) cleavage by PLpro, 10 min pre-incubation, slope over 20 min, normalised to no-compound control; settings: low concentration screen, read-out: % of control remaining
[2] = biological target: T1, SARS-CoV-2 PLpro (nsp3 1564–1878); assay: biochemical; parameters: FRET-quenched peptide (Pro3) cleavage by PLpro, 10 min pre-incubation, slope over 20 min, normalised to no-compound control; settings: high concentration screen, read-out: % of control remaining

CCCNC(=O)[C@H]1O[C@@H]1C(=O)N[C@H](C(=O)N1CCC[C@H]1C(=O)O)[C@@H](C)CC [CA-074] gave a remaining activity at 1.25 µM ([1]; Well no.=8272) of 104% and a remaining activity at 3.75 µM ([2]; Well no.=8272) of 101%.

NCC#Cc1ccccc1 [3-Phenylpropargylamine hydrochloride] gave a remaining activity at 1.25 µM ([1]; Well no.=1405) of 103% and a remaining activity at 3.75 µM ([2]; Well no.=1405) of 101%.

O=C(O)c1ccc(C(=O)O)cc1 [Terephthalic acid] was tested, and the remaining activity at 1.25 µM ([1]; Well no.=7501) was 106% and the remaining activity at 3.75 µM ([2]; Well no.=7501) was 103%.

With COc1ccc2[nH]c([S+]([O-])Cc3ncc(C)c(OC)c3C)nc2c1 (stereo not drawn) [Omeprazole] the remaining activity at 1.25 µM ([1]; Well no.=2051) was 101% and the remaining activity at 3.75 µM ([2]; Well no.=2051) was 101%.

CCCCS(=O)(=O)N[C@@H](Cc1ccc(OCCCCC2CCNCC2)cc1)C(=O)O [Tirofiban hydrochloride monohydrate] was tested, and the remaining activity at 1.25 µM ([1]; Well no.=5469) was 95.9% and the remaining activity at 3.75 µM ([2]; Well no.=5469) was 99.6%.

Cc1nc(NC(=O)N2CCC[C@H]2C(N)=O)sc1-c1ccnc(C(C)(C)C(F)(F)F)c1 [BYL719] gave a remaining activity at 1.25 µM ([1]; Well no.=5163) of 102% and a remaining activity at 3.75 µM ([2]; Well no.=5163) of 104%.

C=CCN1CC[C@]23c4c5ccc(O)c4O[C@H]2C(=O)CC[C@@]3(O)[C@H]1C5 [Naloxone hydrochloride] was tested, and the remaining activity at 1.25 µM ([1]; Well no.=907) was 103% and the remaining activity at 3.75 µM ([2]; Well no.=907) was 105%.

For CCNC(=O)[C@H]1O[C@@H](n2cnc3c(N)nc(NCCc4ccc(CCC(=O)O)cc4)nc32)[C@H](O)[C@@H]1O [CGS-21680 hydrochloride], the remaining activity at 1.25 µM ([1]; Well no.=391) was 105% and the remaining activity at 3.75 µM ([2]; Well no.=391) was 99.7%.

N#CC(C#N)=Cc1ccc(O)c(O)c1 [Tyrphostin 23] showed a remaining activity at 1.25 µM ([1]; Well no.=1341) of 94.2% and a remaining activity at 3.75 µM ([2]; Well no.=1341) of 93.9%.

With CNC(=O)c1ccc(N2C(=S)N(c3ccc(C#N)c(C(F)(F)F)c3)C(=O)C2(C)C)cc1F [MDV3100 (Enzalutamide)] the remaining activity at 1.25 µM ([1]; Well no.=4759) was 102% and the remaining activity at 3.75 µM ([2]; Well no.=4759) was 104%.

Nc1nc2c(ncn2[C@@H]2O[C@H](COP(=O)(O)OP(=O)(O)O)[C@@H](O)[C@H]2O)c(=O)[nH]1 [Guanosine 5'-diphosphate disodium salt] gave a remaining activity at 1.25 µM ([1]; Well no.=8939) of 98.9% and a remaining activity at 3.75 µM ([2]; Well no.=8939) of 96.6%.

C[N+]1(C)CCCC(OC(=O)C(O)(c2ccccc2)c2ccccc2)C1 (stereo not drawn) [Mepenzolate (Bromide)] was tested, and the remaining activity at 1.25 µM ([1]; Well no.=7911) was 102% and the remaining activity at 3.75 µM ([2]; Well no.=7911) was 100%.

With N#C/C(=C(/N)Sc1ccc(N)cc1)c1ccccc1C(F)(F)F the remaining activity at 1.25 µM ([1]; Well no.=2480) was 98.7% and the remaining activity at 3.75 µM ([2]; Well no.=2480) was 98.3%.

In the case of O=S(=O)(NCCN1CCNCC1)c1ccc(NC2CCCCC2)c(NCc2ccccc2)c1 [UAMC-3203 hydrochloride], the remaining activity at 1.25 µM ([1]; Well no.=6780) is reported as 105% and the remaining activity at 3.75 µM ([2]; Well no.=6780) is reported as 102%.

Work on CN(C)c1nc2c(ncn2[C@@H]2O[C@H](CO)[C@@H](O)[C@H]2O)c(=O)[nH]1 [N2,N2-Dimethylguanosine] yielded a remaining activity at 1.25 µM ([1]; Well no.=6969) of 105%, a remaining activity at 1.25 µM ([1]; Well no.=7820) of 104% and a remaining activity at 3.75 µM ([2]; Well no.=6969) of 106%. For the same compound, the remaining activity at 3.75 µM ([2]; Well no.=7820) was 104%.

O[C@H](c1cc(C(F)(F)F)nc2c(C(F)(F)F)cccc12)[C@@H]1CCCCN1 [(R)-[2,8-bis(trifluoromethyl)-4-quinolinyl][(2S)-2-piperidinyl]methanol hydrochloride] was tested, and the remaining activity at 1.25 µM ([1]; Well no.=5875) was 105% and the remaining activity at 3.75 µM ([2]; Well no.=5875) was 113%.

O=c1[nH]c(=O)n([C@@H]2O[C@H](CO)[C@@H](O)[C@H]2O)cc1F [5-Fluorouridine] showed a remaining activity at 1.25 µM ([1]; Well no.=7900) of 95.4% and a remaining activity at 3.75 µM ([2]; Well no.=7900) of 91.5%.

O=C[C@H](O)[C@@H](O)[C@H](O)CO [Xylose] showed a remaining activity at 1.25 µM ([1]; Well no.=6351) of 103%, a remaining activity at 1.25 µM ([1]; Well no.=8144) of 99.9% and a remaining activity at 3.75 µM ([2]; Well no.=6351) of 105%. It also gave a remaining activity at 3.75 µM ([2]; Well no.=8144) of 96.9%.

For CP(=O)(O)C1=CCNCC1 [TPMPA], the remaining activity at 1.25 µM ([1]; Well no.=1474) was 100% and the remaining activity at 3.75 µM ([2]; Well no.=1474) was 102%.

In the case of CCN1C[C@H](C)n2c(c(O)c3c(=O)n(Cc4ccc(F)c(Cl)c4)nc(C(=O)NC)c32)C1=O [MK-2048], the remaining activity at 1.25 µM ([1]; Well no.=4731) is reported as 107% and the remaining activity at 3.75 µM ([2]; Well no.=4731) is reported as 104%.

Compound O=C(O[C@@H]1C[C@@H]2C[C@H]3C[C@H](C1)N2CC3=O)c1c[nH]c2ccccc12 [Dolasetron] has a remaining activity at 1.25 µM ([1]; Well no.=1870) of 96.1%, a remaining activity at 1.25 µM ([1]; Well no.=6235) of 106% and a remaining activity at 3.75 µM ([2]; Well no.=1870) of 96.3%. For the same compound, the remaining activity at 3.75 µM ([2]; Well no.=6235) was 105%.

With CCC1(c2ccc(N)cc2)CCC(=O)NC1=O (racemic) the remaining activity at 1.25 µM ([1]; Well no.=202) was 100% and the remaining activity at 3.75 µM ([2]; Well no.=202) was 102%.

Compound Fc1cc(F)c2c(c1)C1C=CCC1C(c1cccnc1)N2 (stereo not drawn) [6,8-difluoro-4-(3-pyridinyl)-3a,4,5,9b-tetrahydro-3H-cyclopenta[c]quinoline] has a remaining activity at 1.25 µM ([1]; Well no.=5390) of 97.2% and a remaining activity at 3.75 µM ([2]; Well no.=5390) of 91.3%.

Work on C[C@@H]1CCN(C(=O)CC#N)C[C@@H]1N(C)c1ncnc2[nH]ccc12 [Tofacitinib citrate] yielded a remaining activity at 1.25 µM ([1]; Well no.=5551) of 98.9% and a remaining activity at 3.75 µM ([2]; Well no.=5551) of 109%.

In the case of CCCN(CCC)[C@@H]1CCc2cccc(O)c2C1 [R-(+)-8-Hydroxy-DPAT hydrobromide], the remaining activity at 1.25 µM ([1]; Well no.=762) is reported as 92.2% and the remaining activity at 3.75 µM ([2]; Well no.=762) is reported as 88.8%.

Nc1ccc2ncnc(NCCc3ccc(Oc4ccccc4)cc3)c2c1 [NF-kB Activation Inhibitor] gave a remaining activity at 1.25 µM ([1]; Well no.=2566) of 97.6% and a remaining activity at 3.75 µM ([2]; Well no.=2566) of 98.5%.

Compound COc1cc2c(cc1CC=C(C)C)C(=O)C[C@@H](c1ccc(O)cc1)O2 [Bavachinin A] has a remaining activity at 1.25 µM ([1]; Well no.=3243) of 100% and a remaining activity at 3.75 µM ([2]; Well no.=3243) of 99%.

CCN(CCCl)Cc1ccccc1Br [DSP-4 hydrochloride] showed a remaining activity at 1.25 µM ([1]; Well no.=284) of 98.1% and a remaining activity at 3.75 µM ([2]; Well no.=284) of 98%.

For CC(C)=CCC[C@]1(C)C=Cc2c(O)c3c(c(CC=C(C)C)c2O1)O[C@]12C(=C[C@@H]4C[C@H]1C(C)(C)O[C@@]2(C/C=C(/C)C(=O)O)C4=O)C3=O [Gambogic Acid], the remaining activity at 1.25 µM ([1]; Well no.=3723) was 94.4%, the remaining activity at 1.25 µM ([1]; Well no.=6926) was 96.6% and the remaining activity at 3.75 µM ([2]; Well no.=3723) was 97.8%. It also gave a remaining activity at 3.75 µM ([2]; Well no.=6926) of 91.9%.

N[C@@H](CO)C(=O)O [L-Serine] showed a remaining activity at 1.25 µM ([1]; Well no.=7695) of 105% and a remaining activity at 3.75 µM ([2]; Well no.=7695) of 110%.

In the case of CN1[C@@H]2CCC[C@H]1C[C@@H](NC(=O)c1nn(C)c3ccccc13)C2 [Granisetron HCl], the remaining activity at 1.25 µM ([1]; Well no.=5189) is reported as 99.3% and the remaining activity at 3.75 µM ([2]; Well no.=5189) is reported as 97.5%.

Compound CC[C@H](C)[C@H](NC(=O)OCc1ccccc1)C(=O)N[C@@H](CCC(=O)O)C(=O)N1CCC[C@H]1C(=O)N[C@@H](Cc1ccccc1)C(=O)OC [CH 5450] (Cbz-IEPF-OMe) has a remaining activity at 1.25 µM ([1]; Well no.=8516) of 101% and a remaining activity at 3.75 µM ([2]; Well no.=8516) of 102%.
